The values below come from PMC10020352 (Frontiers in Pharmacology, 2023).

Where two headings read alike, the source gives them in different places. Where a SMILES comes first, the peptide text is derived from it. [ ]: non-standard residue; d: D form. Phe(4-NO2) = N[C@@H](Cc1ccc([N+](=O)[O-])cc1)C(=O)O; Phe(4-Cl) = N[C@@H](Cc1ccc(Cl)cc1)C(=O)O; NMeR = CN[C@@H](CCCNC(=N)N)C(=O)O; Aoc = NCCCCCCCC(=O)O; Sar = CNCC(=O)O

One data set has as its target T1, MOP receptor (Homo sapiens, UniProt P35372).
T1 construct: expressed in transfected cells; host or cells: HEK293
Briefly: cell-based.

Data set [1] deals with T2, KOP receptor (Homo sapiens, UniProt P41145). Briefly: cell-based. The data set is classed as cell-based.
T2 sequence (P41145 whole entry): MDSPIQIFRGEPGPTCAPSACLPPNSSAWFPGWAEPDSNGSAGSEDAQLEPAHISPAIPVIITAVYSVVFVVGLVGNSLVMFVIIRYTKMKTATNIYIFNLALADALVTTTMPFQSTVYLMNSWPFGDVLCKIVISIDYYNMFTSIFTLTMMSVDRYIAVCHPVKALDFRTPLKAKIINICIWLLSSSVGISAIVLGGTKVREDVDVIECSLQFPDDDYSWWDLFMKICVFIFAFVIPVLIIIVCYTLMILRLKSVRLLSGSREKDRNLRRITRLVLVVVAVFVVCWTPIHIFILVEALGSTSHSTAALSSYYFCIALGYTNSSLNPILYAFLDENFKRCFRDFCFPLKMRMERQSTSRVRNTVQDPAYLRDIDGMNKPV
In data set [2] the test system is FCA model of inflammatory nociception. The settings on record: rat.
A further data set deals with T3, DOP receptor (Homo sapiens, UniProt P41143).
T3 construct: expressed in transfected cells; host or cells: HEK293
T3 sequence (P41143 whole entry): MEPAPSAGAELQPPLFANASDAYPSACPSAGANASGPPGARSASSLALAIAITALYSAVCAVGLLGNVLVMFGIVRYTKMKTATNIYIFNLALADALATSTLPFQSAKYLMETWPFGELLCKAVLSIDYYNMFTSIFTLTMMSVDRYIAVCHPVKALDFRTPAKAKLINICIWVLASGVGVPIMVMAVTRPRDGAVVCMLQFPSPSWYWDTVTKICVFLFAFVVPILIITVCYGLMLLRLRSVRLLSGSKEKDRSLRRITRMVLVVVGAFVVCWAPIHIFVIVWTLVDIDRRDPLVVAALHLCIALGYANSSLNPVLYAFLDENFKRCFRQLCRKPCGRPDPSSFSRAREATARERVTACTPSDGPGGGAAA
Put plainly: cell-based.

In data set [3] the target is T4, bovine pancreatic trypsin (Bos taurus, UniProt P00760).
T4 sequence (P00760 24-246): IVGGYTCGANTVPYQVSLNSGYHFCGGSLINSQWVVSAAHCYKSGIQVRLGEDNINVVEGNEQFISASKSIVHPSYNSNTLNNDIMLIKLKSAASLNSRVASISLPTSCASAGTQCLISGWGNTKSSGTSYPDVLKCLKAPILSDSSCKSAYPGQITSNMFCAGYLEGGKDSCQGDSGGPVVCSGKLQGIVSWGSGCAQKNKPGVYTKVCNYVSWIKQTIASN
Briefly: Metabolic stability in trypsin. Format: in vitro ADME. Particulars: bovine pancreatic trypsin 2.5 μg/mL, pH 8-8.5, 37°C, peptide 100 μM; read-out: Stability (t1/2) Trypsin. As for the experimental part: (§1) Whole blood was collected in-house from adult mixed-gender Wistar rats (RRID: RGD_150520162), and plasma was prepared in 0.2% EDTA as per standard practice. Peptides (final 100 μM) were incubated with pooled rat plasma at 37°C. Samples were collected at different time intervals 0, 5, 10, 15, 30, 60, and 120 min. At each time point, collected samples were immediately added to three volumes of cold ACN. This mixture was vortexed for 30 s and then centrifuged at room temperature (13 K rpm, 5 min). The supernatant was taken and directly placed in glass HPLC vials for LCMS analysis. The protocol for the trypsin stability assay was as for the plasma stability assay except for the […] (bovine pancreatic trypsin 2.5 μg/mL in NH4HCO3 buffer, approx. pH 8–8.5, 37°C).
(§2) Relative concentrations of each peptide from stability assays in plasma or trypsin were analysed using an Agilent binary LC system consisting of an Agilent 1290 Infinity LC pump, Agilent 1,290 auto-sampler coupled with Triple Quad Mass-Spectrometer (MS, model 6460, Agilent Technologies). A bidentate C18 HPLC column (Cogent, 100 Å, […]) with a binary solvent gradient composed of Solvent: A 0.1%v/v formic acid in MQ water and Solvent B: 0.1% v/v formic acid in ACN was used for the separation. The MS parameters were optimised for all compounds to obtain the highest signal in positive Total Ion Current (TIC) mode. Data were analysed using a combination of Microsoft Excel and GraphPad Prism software packages. Data was normalised to time point zero (immediately after compound addition) and expressed in percentages from t = 0. Half-lives were calculated in GraphPad Prism software (v8.3).

Data set [4] deals with T2, KOP receptor. Put plainly: biochemical. The data set is classed as binding.
Data set [5] concerns the target T2, KOP receptor. Format: cell-based.
Data set [6] in a line: Metabolic stability in rat plasma. Format: in vitro ADME. Particulars: pooled rat plasma, 37°C, peptide 100 μM; for half-life: rat, plasma, read-out: Stability (t1/2) Plasma. As for the experimental part:
as §1, §2

Data set [7] concerns pERK1/2 in HEK293-KOP receptor cells. Format: cell-based.

T1 sequence (P35372 whole entry): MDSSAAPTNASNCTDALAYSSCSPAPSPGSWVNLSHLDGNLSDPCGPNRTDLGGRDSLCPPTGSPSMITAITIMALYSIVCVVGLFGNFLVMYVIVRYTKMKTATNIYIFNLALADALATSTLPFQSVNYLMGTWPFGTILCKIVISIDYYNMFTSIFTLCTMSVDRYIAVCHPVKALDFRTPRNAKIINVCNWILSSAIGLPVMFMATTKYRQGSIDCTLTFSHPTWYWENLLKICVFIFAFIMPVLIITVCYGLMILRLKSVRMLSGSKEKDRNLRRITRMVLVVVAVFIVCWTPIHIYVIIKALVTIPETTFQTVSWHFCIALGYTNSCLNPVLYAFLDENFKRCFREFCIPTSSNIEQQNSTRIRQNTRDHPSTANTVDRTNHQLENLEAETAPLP

A word on the EC50: it is the concentration that produces a half-maximal response. By Ki is commonly meant a dissociation constant, usually derived from enzyme kinetics or from competition with a known ligand. Read a low Ki as tighter binding. As usually defined, the IC50 is the concentration at which inhibition is half-maximal. Regarding `CC(C)C[C@H](NC(=O)[C@H](Cc1ccc([N+](=O)[O-])cc1)NC(=O)CN(C)C(=O)[C@@H](N)Cc1ccc(O)cc1)C(=O)N(C)[C@@H](CCCNC(=N)N)C(=O)N(C)[C@@H](CCCNC(=N)N)C(N)=O` [KA311] (H-Y[Sar][Phe(4-NO2)]L[NMeR][NMeR]-NH2), the values for the EC50 on MOP receptor, at KOP receptor [1] and on DOP receptor were more than 10000 nM, 31 nM and more than 10000 nM, respectively. In addition, on KOP receptor [1], the “selectivity for KOP receptor over MOP receptor and DOP receptor” value was more than 1000 fold. Besides, the “paw withdrawal threshold in the contralateral (uninflamed, untreated) paw” value in data set [2] (in vivo) was “not observed”. In addition, the half-life in [3] is more than 1000 min. The same molecule yielded a Ki on KOP receptor [4] of 180 nM. Further, half-maximal inhibition at KOP receptor [4] (IC50) (IC50) was put at 1950 nM.

With `CC(C)C[C@H](NC(=O)[C@H](Cc1ccccc1)NC(=O)CNC(=O)CNC(=O)[C@@H](N)Cc1ccc(O)cc1)C(=O)N[C@@H](CCCNC(=N)N)C(=O)N[C@@H](CCCNC(=N)N)C(=O)O` [Dyn 1-7, reference compound], the EC50 on MOP receptor (read-out: Activity (EC50) MOP) was 3740 nM; on DOP receptor (read-out: Activity (EC50) DOP) it was 870 nM. Moreover, the “KOP receptor desensitisation (maximal cAMP effect after pre-treatment)” value at KOP receptor [5] is given as “no discernible desensitisation”. The half-life is 8.1 min in data set [6] and less than 1 min in [3]. For the same molecule, the “bias factor β (cAMP versus pERK)” value in data set [7] is given as “bias towards pERK”. Moreover, the “pERK1/2 expression / activity” value in data set [7] was “time and concentration-dependent pERK expression”.

For `CC(C)C[C@H](NC(=O)[C@H](Cc1ccc(Cl)cc1)NC(=O)CN(C)C(=O)[C@@H](N)Cc1ccc(O)cc1)C(=O)N[C@@H](CCCNC(=N)N)C(=O)N[C@H](CCCNC(=N)N)C(=O)NCCCCCCCC(N)=O` [KA305] (H-Y[Sar][Phe(4-Cl)]LR[dR][Aoc]-NH2), on KOP receptor [5], the “KOP receptor desensitisation (maximal cAMP effect after pre-treatment)” value was “modest but significant desensitisation”. Moreover, on KOP receptor [1], the “inhibition of peptide cAMP modulation by naloxone” value is “significantly blocked”. Moreover, the “overall efficacy (AUC of in vivo effect)” value in [2] is “significantly better efficacy than U50488H”. In [2] (in vivo), the “Efficacy Index (Ie)” value was “statistically significant higher Ie over morphine”, the “antinociceptive activity (paw withdrawal threshold)” value is listed as “showed antinociceptive activity”, the “effect of naloxone on peptide-induced antinociception” value is recorded as “blocked by pre-administration of naloxone” and the “effect on oedema of the affected paw” value was “without effecting oedema”. Moreover, in data set [2] (in vivo), the “paw withdrawal threshold in the contralateral (uninflamed, untreated) paw” value was “not observed”. In addition, in [7], the “bias factor β (cAMP versus pERK)” value is recorded as “bias towards cAMP” and the “pERK1/2 expression / activity” value is “influenced pERK induction at higher concentrations”. For the same molecule, the half-life in [3] came to 4.9 min. At KOP receptor [4], the “Log IC50” value was -7.14 and the “binding affinity to KOP receptor (in words)” value is listed as “strong binders”. The half-inhibitory concentration (IC50) at KOP receptor [4] (read-out: IC50) was determined as 72.6 nM.

On to `CC(C)C[C@H](NC(=O)[C@H](Cc1ccc(Cl)cc1)NC(=O)CN(C)C(=O)[C@@H](N)Cc1ccc(O)cc1)C(=O)N[C@@H](CCCNC(=N)N)C(=O)N(C)[C@@H](CCCNC(=N)N)C(=O)NCCCCCCCC(N)=O` [KA312] (H-Y[Sar][Phe(4-Cl)]LR[NMeR][Aoc]-NH2), for which the EC50 was more than 10000 nM at MOP receptor, 3.79 nM at KOP receptor [1] and more than 10000 nM on DOP receptor. Further, the half-life in [6] is 15.6 min; in [3], 445 min.

Take `CN1CC[C@]23c4c5ccc(O)c4O[C@H]2[C@@H](O)C=C[C@H]3[C@H]1C5` [Morphine, reference compound]: the “paw withdrawal threshold in the contralateral (uninflamed, untreated) paw” value in [2] (in vivo) is reported as “significantly reduced”.

With `CC(C)C[C@H](NC(=O)[C@H](Cc1ccc([N+](=O)[O-])cc1)NC(=O)CN(C)C(=O)[C@@H](N)Cc1ccc(O)cc1)C(=O)N[C@@H](CCCNC(=N)N)C(=O)N[C@H](CCCNC(=N)N)C(N)=O` [KA204] (H-Y[Sar][Phe(4-NO2)]LR[dR]-NH2), the EC50 was more than 10000 nM on MOP receptor, 7.5 nM on KOP receptor [1] and more than 10000 nM on DOP receptor. On KOP receptor [1], the “selectivity for KOP receptor over MOP receptor and DOP receptor” value is listed as more than 1000 fold. The “paw withdrawal threshold in the contralateral (uninflamed, untreated) paw” value in data set [2] (in vivo) was “not observed”. In addition, the “Stability (t1/2) Plasma” value in data set [6] worked out at 71 min. The half-life in [6] was more than 60 min; in data set [3], 15.4 min. Also, the IC50 against KOP receptor [4] and on KOP receptor [4] (IC50) was 30.2 nM in each case. For the same molecule, the Ki at KOP receptor [4] came out at 2.8 nM.

For `CC(C)C[C@H](NC(=O)[C@H](Cc1ccc(Cl)cc1)NC(=O)CN(C)C(=O)[C@@H](N)Cc1ccc(O)cc1)C(=O)N[C@@H](CCCCN)C(=O)N[C@H](CCCNC(=N)N)C(N)=O` [KA306] (H-Y[Sar][Phe(4-Cl)]LK[dR]-NH2), the EC50 at MOP receptor was more than 10000 nM; on KOP receptor [1], 26 nM; at DOP receptor it was more than 10000 nM. The half-life in data set [6] was 160 min; in data set [3], 69.9 min.

Regarding `CC(C)C[C@H](NC(=O)[C@H](Cc1ccc([N+](=O)[O-])cc1)NC(=O)CN(C)C(=O)[C@@H](N)Cc1ccc(O)cc1)C(=O)N[C@@H](CCCNC(=N)N)C(=O)N(C)[C@@H](CCCNC(=N)N)C(=O)NCCCCCCCC(N)=O` [KA313] (H-Y[Sar][Phe(4-NO2)]LR[NMeR][Aoc]-NH2), the EC50 on MOP receptor is more than 10000 nM; at KOP receptor [1] it was 4.45 nM; on DOP receptor, more than 10000 nM. Also, the half-life in [6] is 12.5 min; in data set [3], more than 1000 min.
